Measurements taken from publication PMC10838953.

Legend:
Assay in all cases: biochemical
Details in all cases: read-out: %Ctrl @ 2000nM
ABL1-nonphosphorylated = ABL1-nonphosphorylated (Homo sapiens, UniProt P00519)
ALK(C1156Y) = ALK(C1156Y) (Homo sapiens, UniProt Q9UM73, C1156Y)
BTK = BTK (Homo sapiens, UniProt Q06187)
CSNK1G2 = CSNK1G2 (Homo sapiens, UniProt P78368)
EGFR(L747-T751del,Sins) = EGFR(L747-T751del,Sins) (Homo sapiens, UniProt P00533, DEL747-750/T751S)
EGFR(S752-I759del) = EGFR(S752-I759del) (Homo sapiens, UniProt P00533, DEL752-759)
EPHA4 = EPHA4 (Homo sapiens, UniProt P54764)
EPHB2 = EPHB2 (Homo sapiens, UniProt P29323)
ERBB2 = ERBB2 (Homo sapiens, UniProt P04626)
[1] = molecular target: JAK2(JH1domain-catalytic) (Homo sapiens, UniProt O60674)
KIT = KIT (Homo sapiens, UniProt P10721)
KIT(D816H) = KIT(D816H) (Homo sapiens, UniProt P10721, D816H)
MAK = MAK (Homo sapiens, UniProt P20794)
NIK = NIK (Homo sapiens, UniProt Q99558)
PAK1 = PAK1 (Homo sapiens, UniProt Q13153)
PIK3CA(C420R) = PIK3CA(C420R) (Homo sapiens, UniProt P42336, C420R)
PKN2 = PKN2 (Homo sapiens, UniProt Q16513)
PKNB(M.tuberculosis) = PKNB(M.tuberculosis) (Mycobacterium tuberculosis, UniProt P9WI81)
PRKD3 = PRKD3 (Homo sapiens, UniProt O94806)
PYK2 = PYK2 (Homo sapiens, UniProt Q14289)
[2] = molecular target: RPS6KA4(Kin.Dom.2-C-terminal) (Homo sapiens, UniProt O75676)
[3] = molecular target: RSK2(Kin.Dom.1-N-terminal) (Homo sapiens, UniProt P51812)
SIK2 = SIK2 (Homo sapiens, UniProt Q9H0K1)
TESK1 = TESK1 (Homo sapiens, UniProt Q15569)
ULK1 = ULK1 (Homo sapiens, UniProt O75385)
WNK1 = WNK1 (Homo sapiens, UniProt Q9H4A3)

SIK2, sequence (Q9H0K1 whole entry): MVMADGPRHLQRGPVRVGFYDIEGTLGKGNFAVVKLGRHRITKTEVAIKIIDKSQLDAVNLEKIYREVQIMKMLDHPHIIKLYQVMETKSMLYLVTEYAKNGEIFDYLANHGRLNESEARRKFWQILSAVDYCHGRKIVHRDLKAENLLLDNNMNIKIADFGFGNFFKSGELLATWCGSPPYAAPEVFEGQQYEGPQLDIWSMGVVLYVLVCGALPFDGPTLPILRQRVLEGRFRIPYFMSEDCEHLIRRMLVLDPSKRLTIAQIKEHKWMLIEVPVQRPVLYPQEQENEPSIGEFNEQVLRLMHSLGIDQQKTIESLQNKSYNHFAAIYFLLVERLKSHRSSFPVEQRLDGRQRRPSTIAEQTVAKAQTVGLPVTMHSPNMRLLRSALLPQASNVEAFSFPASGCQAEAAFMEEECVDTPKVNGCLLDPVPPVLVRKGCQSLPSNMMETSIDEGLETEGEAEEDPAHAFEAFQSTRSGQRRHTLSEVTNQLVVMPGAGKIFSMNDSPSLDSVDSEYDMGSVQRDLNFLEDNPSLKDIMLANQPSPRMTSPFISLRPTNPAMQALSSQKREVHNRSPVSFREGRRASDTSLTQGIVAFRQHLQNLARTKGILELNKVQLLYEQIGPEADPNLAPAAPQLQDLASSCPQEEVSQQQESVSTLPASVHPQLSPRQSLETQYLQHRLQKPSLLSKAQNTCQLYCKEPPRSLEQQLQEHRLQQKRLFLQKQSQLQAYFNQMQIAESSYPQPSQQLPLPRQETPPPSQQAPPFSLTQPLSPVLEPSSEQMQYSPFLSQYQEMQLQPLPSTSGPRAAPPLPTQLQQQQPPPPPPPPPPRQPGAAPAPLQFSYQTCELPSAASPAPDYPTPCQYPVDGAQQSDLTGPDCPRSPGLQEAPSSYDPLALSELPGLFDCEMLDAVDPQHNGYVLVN
TESK1, sequence (Q15569 whole entry): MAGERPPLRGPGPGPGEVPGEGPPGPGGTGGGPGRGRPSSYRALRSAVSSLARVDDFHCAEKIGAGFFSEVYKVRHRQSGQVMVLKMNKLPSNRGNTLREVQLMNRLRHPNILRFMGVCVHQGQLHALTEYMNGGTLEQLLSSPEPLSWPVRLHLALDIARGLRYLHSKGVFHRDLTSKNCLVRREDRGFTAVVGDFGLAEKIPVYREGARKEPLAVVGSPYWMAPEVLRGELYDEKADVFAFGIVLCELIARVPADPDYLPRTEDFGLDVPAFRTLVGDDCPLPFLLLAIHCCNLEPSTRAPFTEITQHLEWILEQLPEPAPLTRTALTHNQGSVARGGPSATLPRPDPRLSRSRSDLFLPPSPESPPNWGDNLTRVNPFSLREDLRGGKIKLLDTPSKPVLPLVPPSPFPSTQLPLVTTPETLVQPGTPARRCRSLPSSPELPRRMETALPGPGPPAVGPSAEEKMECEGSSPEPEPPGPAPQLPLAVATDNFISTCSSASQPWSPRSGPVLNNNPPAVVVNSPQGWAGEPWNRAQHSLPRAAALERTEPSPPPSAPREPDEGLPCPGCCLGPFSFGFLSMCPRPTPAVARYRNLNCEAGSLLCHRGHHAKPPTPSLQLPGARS
NIK, sequence (Q99558 whole entry): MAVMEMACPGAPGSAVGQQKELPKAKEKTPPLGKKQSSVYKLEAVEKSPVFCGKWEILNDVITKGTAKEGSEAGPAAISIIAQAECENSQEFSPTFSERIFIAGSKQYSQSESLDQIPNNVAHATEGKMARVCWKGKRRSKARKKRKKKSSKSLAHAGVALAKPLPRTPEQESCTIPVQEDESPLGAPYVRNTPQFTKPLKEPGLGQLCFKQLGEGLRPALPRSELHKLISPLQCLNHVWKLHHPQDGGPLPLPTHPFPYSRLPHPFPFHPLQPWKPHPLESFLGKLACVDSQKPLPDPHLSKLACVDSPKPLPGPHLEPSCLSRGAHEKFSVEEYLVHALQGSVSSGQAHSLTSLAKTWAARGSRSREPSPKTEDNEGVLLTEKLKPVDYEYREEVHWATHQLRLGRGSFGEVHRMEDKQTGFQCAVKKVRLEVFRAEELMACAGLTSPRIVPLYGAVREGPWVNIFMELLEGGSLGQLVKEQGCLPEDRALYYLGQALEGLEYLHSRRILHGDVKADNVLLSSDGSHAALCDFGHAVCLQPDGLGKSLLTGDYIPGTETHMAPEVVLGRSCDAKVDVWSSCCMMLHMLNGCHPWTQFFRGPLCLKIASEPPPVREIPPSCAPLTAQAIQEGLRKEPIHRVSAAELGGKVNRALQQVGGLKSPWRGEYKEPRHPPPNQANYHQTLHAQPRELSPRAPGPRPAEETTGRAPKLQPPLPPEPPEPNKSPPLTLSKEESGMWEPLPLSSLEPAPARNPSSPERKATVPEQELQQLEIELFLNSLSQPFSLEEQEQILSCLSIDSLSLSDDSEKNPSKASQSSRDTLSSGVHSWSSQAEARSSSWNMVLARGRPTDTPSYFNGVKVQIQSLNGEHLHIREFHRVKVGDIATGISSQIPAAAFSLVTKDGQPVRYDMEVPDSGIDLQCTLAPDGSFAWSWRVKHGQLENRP
EPHA4, sequence (P54764 20-986): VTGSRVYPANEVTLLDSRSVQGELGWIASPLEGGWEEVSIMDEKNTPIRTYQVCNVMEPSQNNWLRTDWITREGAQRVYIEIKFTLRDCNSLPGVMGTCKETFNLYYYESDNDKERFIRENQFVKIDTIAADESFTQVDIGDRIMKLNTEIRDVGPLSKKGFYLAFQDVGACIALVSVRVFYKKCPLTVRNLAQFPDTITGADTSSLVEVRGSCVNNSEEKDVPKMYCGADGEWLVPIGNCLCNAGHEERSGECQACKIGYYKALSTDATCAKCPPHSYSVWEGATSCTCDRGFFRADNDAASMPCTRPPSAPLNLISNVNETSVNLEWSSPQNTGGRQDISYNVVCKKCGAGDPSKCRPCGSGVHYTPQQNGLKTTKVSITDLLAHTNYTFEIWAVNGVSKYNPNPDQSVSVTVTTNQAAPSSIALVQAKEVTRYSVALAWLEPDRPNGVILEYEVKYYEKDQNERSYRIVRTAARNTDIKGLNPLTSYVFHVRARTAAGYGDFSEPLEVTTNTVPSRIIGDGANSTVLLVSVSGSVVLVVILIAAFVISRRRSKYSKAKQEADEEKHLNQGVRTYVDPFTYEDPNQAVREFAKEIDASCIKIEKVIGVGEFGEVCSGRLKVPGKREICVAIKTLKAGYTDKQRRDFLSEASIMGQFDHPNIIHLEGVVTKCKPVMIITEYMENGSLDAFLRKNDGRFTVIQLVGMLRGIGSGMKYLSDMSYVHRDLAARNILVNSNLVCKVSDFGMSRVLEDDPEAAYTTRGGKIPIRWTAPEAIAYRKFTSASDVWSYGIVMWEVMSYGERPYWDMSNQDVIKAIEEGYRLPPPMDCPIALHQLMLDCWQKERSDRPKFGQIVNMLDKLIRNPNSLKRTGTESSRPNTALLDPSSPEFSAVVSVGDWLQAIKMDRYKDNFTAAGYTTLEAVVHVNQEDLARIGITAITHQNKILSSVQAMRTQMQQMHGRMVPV
MAK, sequence (P20794 whole entry): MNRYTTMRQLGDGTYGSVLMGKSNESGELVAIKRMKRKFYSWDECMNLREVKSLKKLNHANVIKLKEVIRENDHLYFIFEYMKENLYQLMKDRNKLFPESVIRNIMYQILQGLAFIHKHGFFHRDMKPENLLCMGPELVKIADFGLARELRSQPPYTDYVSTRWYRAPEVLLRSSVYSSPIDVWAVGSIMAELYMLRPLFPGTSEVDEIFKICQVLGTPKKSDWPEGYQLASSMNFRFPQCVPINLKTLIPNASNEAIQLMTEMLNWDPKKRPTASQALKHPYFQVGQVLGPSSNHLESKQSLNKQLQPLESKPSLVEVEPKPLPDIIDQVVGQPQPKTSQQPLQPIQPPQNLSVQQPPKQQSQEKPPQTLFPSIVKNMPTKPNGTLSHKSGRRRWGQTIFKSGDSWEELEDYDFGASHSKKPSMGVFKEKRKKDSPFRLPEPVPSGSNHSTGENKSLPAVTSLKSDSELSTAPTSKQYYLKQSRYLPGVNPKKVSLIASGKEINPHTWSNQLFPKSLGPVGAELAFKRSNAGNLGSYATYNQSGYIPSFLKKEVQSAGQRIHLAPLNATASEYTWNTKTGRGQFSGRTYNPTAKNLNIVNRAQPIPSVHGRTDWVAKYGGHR
RPS6KA4(Kin.Dom.2-C-terminal), sequence (O75676 372-772 limits assumed): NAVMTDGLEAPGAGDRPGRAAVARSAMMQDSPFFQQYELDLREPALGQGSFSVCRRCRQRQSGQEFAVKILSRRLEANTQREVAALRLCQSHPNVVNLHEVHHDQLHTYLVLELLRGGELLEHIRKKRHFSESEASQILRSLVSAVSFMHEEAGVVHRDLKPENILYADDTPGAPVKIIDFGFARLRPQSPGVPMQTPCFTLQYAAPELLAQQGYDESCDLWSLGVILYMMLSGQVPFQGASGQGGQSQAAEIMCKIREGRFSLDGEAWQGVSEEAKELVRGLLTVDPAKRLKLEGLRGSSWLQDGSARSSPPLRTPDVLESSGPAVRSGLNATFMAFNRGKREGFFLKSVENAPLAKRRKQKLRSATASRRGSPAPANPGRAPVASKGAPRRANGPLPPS
CSNK1G2, sequence (P78368 whole entry): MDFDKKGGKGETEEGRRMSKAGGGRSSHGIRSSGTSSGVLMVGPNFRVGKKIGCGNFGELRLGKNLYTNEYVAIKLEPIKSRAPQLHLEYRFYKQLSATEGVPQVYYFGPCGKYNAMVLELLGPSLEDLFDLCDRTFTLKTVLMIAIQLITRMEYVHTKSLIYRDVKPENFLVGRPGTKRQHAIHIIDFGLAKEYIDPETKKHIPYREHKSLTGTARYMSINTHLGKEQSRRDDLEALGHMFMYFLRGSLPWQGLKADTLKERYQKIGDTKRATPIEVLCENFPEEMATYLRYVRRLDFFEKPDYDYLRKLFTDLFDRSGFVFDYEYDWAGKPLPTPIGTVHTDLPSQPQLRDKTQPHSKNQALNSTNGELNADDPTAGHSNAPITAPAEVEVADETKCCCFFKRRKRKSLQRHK

Structure (SMILES): CC(C)COC(=O)c1[nH]c2ccc(F)cc2c1-c1cn(CC2CCN(CCNS(=O)(=O)c3ccc(CC(C)C)cc3)CC2)nn1 [AB668, isobutyl 5-fluoro-3-(1-((1-(2-((4-isobutylphenyl)sulfonamido)ethyl)piperidin-4-yl)methyl)-1H-1,2,3-triazol-4-yl)-1H-indole-2-carboxylate]
- remaining activity at 2 µM (ABL1-nonphosphorylated): 96%
- remaining activity at 2 µM (ALK(C1156Y)): 81%
- remaining activity at 2 µM (BTK): 100%
- remaining activity at 2 µM (CSNK1G2): 75%
- remaining activity at 2 µM (EGFR(L747-T751del,Sins)): 86%
- remaining activity at 2 µM (EGFR(S752-I759del)): 80%
- remaining activity at 2 µM (EPHA4): 78%
- remaining activity at 2 µM (EPHB2): 98%
- remaining activity at 2 µM (ERBB2): 100%
- remaining activity at 2 µM [1]: 85%
- remaining activity at 2 µM (KIT): 95%
- remaining activity at 2 µM (KIT(D816H)): 58%
- remaining activity at 2 µM (MAK): 96%
- remaining activity at 2 µM (NIK): 72%
- remaining activity at 2 µM (PAK1): 99%
- remaining activity at 2 µM (PIK3CA(C420R)): 100%
- remaining activity at 2 µM (PKN2): 85%
- remaining activity at 2 µM (PKNB(M.tuberculosis)): 100%
- remaining activity at 2 µM (PRKD3): 100%
- remaining activity at 2 µM (PYK2): 95%
- remaining activity at 2 µM [2]: 97%
- remaining activity at 2 µM [3]: 61%
- remaining activity at 2 µM (SIK2): 100%
- remaining activity at 2 µM (TESK1): 95%
- remaining activity at 2 µM (ULK1): 77%
- remaining activity at 2 µM (WNK1): 100%
